{"source": "paper PMC6444592", "about": "“Citrullination of HP1γ chromodomain affects association with chromatin” (Epigenetics & Chromatin, 2019)", "key": {"[1]": {"system": "H3K9me3(1–16) peptides", "assay": "peptide pulldown assay", "assay_type": "binding", "conditions": "300 mM NaCl HBS-EP; Coomassie gel; n = 3 (p values 0.021, 0.008; ns 0.181)", "method": "H3K9me3 or unmethylated H3(1–16) peptides, linked to Dynabeads MyOne streptavidin T1 (Thermo Fisher Scientific), were used in pulldown assays with eluted GST-HP1 in HBS-EP (300 mM NaCl, 10 mM HEPES KOH pH 7.4, 5 mM EDTA and 0.2% NP-40). Pulldown assays were performed in 300 mM NaCl HBS-EP as previously described. Samples were resuspended in 2 × Laemmli buffer and resolved by SDS-PAGE followed by Coomassie-blue staining. Images were quantified using ImageJ software."}, "[2]": {"system": "PADI4", "assay": "in vitro citrullination (deimination) assay of HP1γ", "assay_type": "biochemical, human", "conditions": "with calcium; for citrullination by PADI4, in words: GST fusion proteins, anti-peptidyl-citrulline immunoblot, n = 3 (p values 0.002, 0.003, 0.008)", "protocol": "For immunoblotting, cells were lysed in 2 × Laemmli buffer and sonicated in a water bath (Fisherbrand) for 3 min to shear genomic DNA, spun down at full speed in a microfuge for 15 min and incubated for 5 min at 95 °C. Proteins were resolved by SDS-PAGE, transferred to nitrocellulose membrane (Millipore) using wet transfer (transfer buffer: 192 mM glycine, 25 mM Tris.HCl pH8.8) and incubated in blocking solution (5% BSA in TBS containing 0.5% Tween-20 for citrulline sensitive antibodies and 5% non-fat milk powder in TBS containing 0.1% Tween-20 for all other antibodies) for 1 h at room temperature (RT). Membranes were incubated with primary antibody at 4 °C o/n and appropriate HRP-conjugated secondary antibody for 1 h at RT. Membranes were then incubated for enhanced chemiluminescence (ECL, Promega), and proteins were detected by exposure to X-ray film or using the ChemiDoc™ MP imaging system (Bio-Rad). Images were quantified using ImageJ analysis software. Primary antibodies diluted in blocking solution were used to detect citrullinated histone H3R2 (H3R2-Cit, Abcam ab176843 at 1:1000 dilution), HP1γ (Millipore 05-690 MAB clone 42s2 [16] at 1:1000 dilution), β-Tubulin (Abcam ab6046 at 1:1000 dilution) and peptidyl-citrulline (Millipore MABN328, clone F95 [48] at 1:1000 dilution). HRP-conjugated secondary antibodies diluted in blocking solution were used against mouse IgG (Dako, P0447 at 1:5000 dilution), rabbit IgG (Abcam, ab6721 at 1:20,000 dilution) and sheep IgG (Abcam, ab6747 at 1:5000 dilution).\nIn vitro deimination of GST-HP1 variants was carried out as described previously [22]. In vitro deimination assays were performed in the presence and absence of 100 ng H3(1–16) or H3K9me3 peptides as appropriate. Samples were resuspended in 1 × Laemmli buffer for immunoblot analysis."}, "[3]": {"system": "H3K9me3(1–16) peptides", "assay": "bio-layer interferometry (BLI)", "assay_type": "binding", "conditions": "20 mM Hepes KOH pH 7.2, 70 mM KCl, GST fusion, association 120 s, dissociation 120 s, WT 28.0 μM, R38/9K 25.5 μM, R38/9A 28.3 μM and lower concentrations", "method": "Recombinant mouse full-length HP1 wildtype and mutant proteins were expressed in (as GST fusion proteins), and purified from, Escherichia coli as described. Proteins were concentrated using Amicon Ultra centrifugation filters with a 30 kDa cutoff (Millipore), washed into binding buffer (20 mM Hepes KOH pH 7.2, 70 mM KCl, 1 mM DTT, 0.1% Tween-20, 5% glycerol). Protein concentrations were determined by Bradford protein assay against a BSA standard, and purity was verified by SDS-PAGE followed by Coomassie-blue staining. Real-time binding assays of GST-HP1γ were performed using the BLItz® system (ForteBio) in binding buffer (+ 0.1% BSA). Biotinylated H3(1–16) peptides (NH2-[…](me3)STGGKAP-Biotin) were immobilised to Dip and Read High Precision Streptavidin (SAX) Biosensors (ForteBio), and kinetics for a range of protein concentrations were measured under advanced kinetics settings (1. initial baseline measuring buffer only: 30 s, 2. loading of peptides onto sensors: 120 s, 3. effective baseline measurement: 30 s, 4. association of GST-HP1γ proteins: 120 s, 5. dissociation of GST-HP1γ proteins: 120 s). The data were normalised to the effective baseline signal by subtracting the average baseline value (150–180 s) from each data point (150–420 s). […] Raw data are summarised in Additional file 3: Table S1."}, "[4]": {"system": "mESCs", "assay": "live-cell single-particle tracking, 13.5 ms, jump distance analysis", "assay_type": "cell-based, mouse", "conditions": "for Diffusion coefficient, Bound / Diffusion coefficient, Diffusing / Percentage, Bound / Percentage, Diffusing: 13.5 ms", "method": "Parental E14 mouse embryonic stem cell (mESC) line was profiled by transcriptome analysis, qPCR and potency assays and was routinely tested for mycoplasma contamination and tested negative. Cells were cultured in DMEM (Gibco) supplemented with 15% standard FCS (Gibco), 0.1 mM non-essential amino acids (Gibco), 1% penicillin/streptomycin, 2 mM L-glutamine (Gibco), 1 mM sodium pyruvate (Gibco), 0.1 mM β-mercaptoethanol (Life Technologies) and 10^6 units/l mLIF (ESGRO, Millipore). E14 cells were stored in incubators at 37 °C in 7.5% CO2 (100% humidity) and maintained in 0.1% gelatin coated 10-cm culture dishes with 1:6 passaging every 2 days. Media was changed on a daily basis. E14 ESCs expressing mouse mEos3.2–HaloTag-HP1 fusion proteins were generated by transfecting appropriate pSB7 plasmids into E14 cells using Lipofectamine 2000 transfection reagent (Invitrogen), followed by selection in 600 µg/ml geneticin (Life Technologies). After 2 weeks of geneticin selection, cells were sorted using a Sony SH800S cell sorter for the expression of mEos3.2. Differentiation of ESCs was induced by LIF withdrawal. ESCs cultured in complete ES cell media (+ LIF) were trypsinised and washed twice in 1x PBS to remove residual LIF, seeded into ES cell media without LIF and incubated for 24, 48 or 72 h.\nAn IX73 Olympus inverted microscope was used with circularly polarised laser beams aligned and focused at the back aperture of an Olympus 1.40 NA 100 × oil objective (Universal Plan Super Apochromat, 100 × , NA 1.40, UPLSAPO100XO/1.4). Continuous wavelength diode laser light sources used include a 561-nm (Cobolt, Jive 200, 200 mW) and a 405-nm laser (Stradus, Toptica, 405–100, 100 mW). Oblique angle illumination was achieved by aligning the laser off axis such that the emergent beam at the sample interface was near-collimated and incident at an angle slightly less than the critical angle θc ~ 67° for a glass/water interface. This generated a ~ 50 μm diameter excitation footprint. The power of the collimated beams at the back aperture of the microscope was 10 kW/cm^2 and 10–100 W/cm^2 for the 561-nm and 405-nm laser beams, respectively. The lasers were reflected by dichroic mirrors (Semrock, Di01-R405/488/561/635). The fluorescence emission was collected through the same objective and then further filtered using a combination of long-pass and band-pass filters (BLP01-561R and FF01-587/35 for 561 nm excitation). The emission signal was projected onto an EMCCD (Photometrics, Evolve 512 Delta) with an electron multiplication gain of 250 ADU/photon operating in a frame transfer mode.\nmESCs expressing mEos3.2–HaloTag-tagged HP1γ were passaged 2 days before imaging onto 35-mm glass bottom dishes No 1.0 (MatTek Corporation P35G-1.0-14-C Case) in phenol red-free serum and LIF conditions, if not stated otherwise. Just before single-particle tracking (SPT) imaging experiments, cells were labelled with 0.5 nM HaloTag–JF549 ligand for at least 15 min, followed by two washes in PBS and a 30-min incubation at 37 °C in media, before imaging the cells in fresh phenol red-free serum and LIF conditions. Cells were under-labelled to prevent overlap of fluorophores during SPT. Using 561 nm excitation, fluorescence images were collected as movies of 10,000 frames at 13.5 ms or 1000 to 5000 frames at 500 ms exposure. For live-cell tracking, data were collected for three biological replicates on separate dishes and the average values compared.\nLive-cell 13.5-ms single-molecule traces were analysed using software that detects single-molecule trajectories from SPT movies. Briefly, the code detected puncta positions in each image frame using a brightness-weighted centroid after applying a band-pass filter to remove low-frequency background and high-frequency noise from the image data. To track the HP1 single molecules, only fluorescent puncta smaller than 3 pixels and with a signal to noise greater than 8 were analysed. […]"}, "[5]": {"system": "mESCs", "assay": "immunoprecipitation of endogenous HP1γ and anti-peptidyl-citrulline immunoblot", "assay_type": "cell-based, mouse", "conditions": "−LIF 72 h versus +LIF; nuclear lysates; three replicates", "method": "For immunoblotting, cells were lysed in 2 × Laemmli buffer and sonicated in a water bath (Fisherbrand) for 3 min to shear genomic DNA, spun down at full speed in a microfuge for 15 min and incubated for 5 min at 95 °C. Proteins were resolved by SDS-PAGE, transferred to nitrocellulose membrane (Millipore) using wet transfer (transfer buffer: 192 mM glycine, 25 mM Tris.HCl pH8.8) and incubated in blocking solution (5% BSA in TBS containing 0.5% Tween-20 for citrulline sensitive antibodies and 5% non-fat milk powder in TBS containing 0.1% Tween-20 for all other antibodies) for 1 h at room temperature (RT). Membranes were incubated with primary antibody at 4 °C o/n and appropriate HRP-conjugated secondary antibody for 1 h at RT. Membranes were then incubated for enhanced chemiluminescence (ECL, Promega), and proteins were detected by exposure to X-ray film or using the ChemiDoc™ MP imaging system (Bio-Rad). Images were quantified using ImageJ analysis software. Primary antibodies diluted in blocking solution were used to detect citrullinated histone H3R2 (H3R2-Cit, Abcam ab176843 at 1:1000 dilution), HP1γ (Millipore 05-690 MAB clone 42s2 [16] at 1:1000 dilution), β-Tubulin (Abcam ab6046 at 1:1000 dilution) and peptidyl-citrulline (Millipore MABN328, clone F95 [48] at 1:1000 dilution). […]"}}, "data": [{"substance": "HP1γR38/9K: HP1γ with both R38 and R39 mutated to lysine", "values": [{"measurement": "binding in pulldown, in words", "setting": "[1]", "value": "maintained binding to H3K9me3 peptides"}, {"measurement": "enhancement of citrullination by H3K9me3 peptides, in words", "setting": "[2]; H3K9me3(1–16) peptides, mutant used as substrate", "value": "abolished"}, {"measurement": "BLI binding, in words", "setting": "[3]", "value": "binds H3K9me3 peptides with similar affinity to the WT protein"}, {"measurement": "BLI binding, in words", "setting": "[3]; listed as R38/9K", "value": "maintained binding to H3K9me3 peptides"}]}, {"substance": "HP1γI165K: chromoshadow domain (CSD) mutant HP1γI165K, which prevents dimerisation of HP1γ [reference compound]", "values": [{"measurement": "Diffusion coefficient, Bound", "setting": "[4]; +LIF, replicate i", "value": 0.081, "unit": "µm2s-1"}, {"measurement": "Diffusion coefficient, Diffusing", "setting": "[4]; +LIF, replicate i", "value": 1.500, "unit": "µm2s-1"}, {"measurement": "Percentage, Bound", "setting": "[4]; +LIF, replicate i", "value": 32.7, "unit": "%"}, {"measurement": "Percentage, Diffusing", "setting": "[4]; +LIF, replicate i", "value": 67.3, "unit": "%"}, {"measurement": "Diffusion coefficient, Bound", "setting": "[4]; +LIF, replicate ii", "value": 0.100, "unit": "µm2s-1"}, {"measurement": "Diffusion coefficient, Diffusing", "setting": "[4]; +LIF, replicate ii", "value": 1.485, "unit": "µm2s-1"}, {"measurement": "Percentage, Bound", "setting": "[4]; +LIF, replicate ii", "value": 20.9, "unit": "%"}, {"measurement": "Percentage, Diffusing", "setting": "[4]; +LIF, replicate ii", "value": 79.1, "unit": "%"}, {"measurement": "Diffusion coefficient, Bound", "setting": "[4]; +LIF, replicate iii", "value": 0.00228, "unit": "µm2s-1"}, {"measurement": "Diffusion coefficient, Diffusing", "setting": "[4]; +LIF, replicate iii", "value": 1.500, "unit": "µm2s-1"}, {"measurement": "Percentage, Bound", "setting": "[4]; +LIF, replicate iii", "value": 0.4, "unit": "%"}, {"measurement": "Percentage, Diffusing", "setting": "[4]; +LIF, replicate iii", "value": 99.6, "unit": "%"}, {"measurement": "Diffusion coefficient, Bound", "setting": "[4]; +LIF, replicate iv", "value": 0.023, "unit": "µm2s-1"}, {"measurement": "Diffusion coefficient, Diffusing", "setting": "[4]; +LIF, replicate iv", "value": 1.500, "unit": "µm2s-1"}, {"measurement": "Percentage, Bound", "setting": "[4]; +LIF, replicate iv", "value": 4, "unit": "%"}, {"measurement": "Percentage, Diffusing", "setting": "[4]; +LIF, replicate iv", "value": 96, "unit": "%"}, {"measurement": "diffusion coefficient of bound molecules, in words", "setting": "[4]; mESCs, n = 4–5", "value": "remained unchanged"}, {"measurement": "diffusion of diffusing molecules versus wildtype", "setting": "[4]; mESCs, n = 4–5, p value: 0.0001", "value": "moved significantly more quickly than wildtype molecules"}, {"measurement": "percentages of molecules within diffusing and bound fraction, significance versus WT", "setting": "[4]; n = 4–5, p value > 0.165", "value": "ns."}, {"measurement": "Diffusion coefficient, Diffusing", "setting": "[4]; −LIF, replicate i", "value": 1.101, "unit": "µm2s-1"}, {"measurement": "Percentage, Bound", "setting": "[4]; −LIF, replicate i", "value": 10, "unit": "%"}, {"measurement": "Percentage, Diffusing", "setting": "[4]; −LIF, replicate i", "value": 90, "unit": "%"}, {"measurement": "Diffusion coefficient, Bound", "setting": "[4]; −LIF, replicate ii", "value": 0.098, "unit": "µm2s-1"}, {"measurement": "Diffusion coefficient, Diffusing", "setting": "[4]; −LIF, replicate ii", "value": 1.500, "unit": "µm2s-1"}, {"measurement": "Percentage, Bound", "setting": "[4]; −LIF, replicate ii", "value": 16.6, "unit": "%"}, {"measurement": "Percentage, Diffusing", "setting": "[4]; −LIF, replicate ii", "value": 83.4, "unit": "%"}]}, {"substance": "R39K: HP1γ with R39 substituted with lysine", "values": [{"measurement": "citrullination by PADI4, in words", "setting": "[2]", "value": "abolished"}]}, {"substance": "heterochromatin protein 1 gamma [HP1γ]", "values": [{"measurement": "binding in pulldown, in words", "setting": "[1]", "value": "specifically binds to H3K9me3 peptides"}, {"measurement": "citrullination of endogenous HP1γ in differentiating mESCs", "setting": "[5]", "value": "significantly less citrullinated in differentiating mESCs"}, {"measurement": "citrullination by PADI4, in words", "setting": "[2]", "value": "PADI4 citrullinates HP1γ in vitro"}]}]}
